The series can be described thus: Circulation time of liposomes in the body: Doxorubicin concentration in rat blood by a pharmacokinetics method with HPLC analysis. The format is in vivo. The conditions noted are these: 8 hours after injection, FIG. 1. How it is done: In this example, the concentration of Doxorubicin in the blood is determined by a pharmacokinetics method, and HPLC analysis is performed subsequently.
Doxo. is compared with DO503 liposomes (Example 1) and DO502 liposomes (Example 2), wherein Doxo. represents the free doxorubicin solution. […] Especially for DO503, it even exists in rat blood 48 hours after injection.

Turning to `COc1cccc2c1C(=O)c1c(O)c3c(c(O)c1C2=O)C[C@@](O)(C(=O)CO)C[C@@H]3O[C@H]1C[C@H](N)[C@H](O)[C@H](C)O1` [Doxo., doxorubicin], the “Doxorubicin concentration in rat blood” value is “almost no Doxorubicin concentration detected”.

Values taken from US20080166403A1, “Long circulating liposome” (Industrial Technology Research Institute, priority 2003, published 2008).
